# Assay results as given in ChEMBL document CHEMBL1212723, “Bioactivity-guided mapping and navigation of chemical space” (Nat Chem Biol, 2009).
# pEC50, pIC50, pKi: −log10 of the molar value. The source made the active and inactive calls. The calls are words filed in the database; no cut-off is given here.
# Columns and labels:
# [1] = target: T1, Estrogen receptor beta (Homo sapiens, UniProt Q92731); assay: Antagonist activity at human ERbeta ligand binding domain expressed in Escherichia coli BL21(DE3) cells assessed as inhibition of coactivator 53-protein binding by fluorescence assay
# T1 sequence (Q92731 whole entry, the tested form may be a part): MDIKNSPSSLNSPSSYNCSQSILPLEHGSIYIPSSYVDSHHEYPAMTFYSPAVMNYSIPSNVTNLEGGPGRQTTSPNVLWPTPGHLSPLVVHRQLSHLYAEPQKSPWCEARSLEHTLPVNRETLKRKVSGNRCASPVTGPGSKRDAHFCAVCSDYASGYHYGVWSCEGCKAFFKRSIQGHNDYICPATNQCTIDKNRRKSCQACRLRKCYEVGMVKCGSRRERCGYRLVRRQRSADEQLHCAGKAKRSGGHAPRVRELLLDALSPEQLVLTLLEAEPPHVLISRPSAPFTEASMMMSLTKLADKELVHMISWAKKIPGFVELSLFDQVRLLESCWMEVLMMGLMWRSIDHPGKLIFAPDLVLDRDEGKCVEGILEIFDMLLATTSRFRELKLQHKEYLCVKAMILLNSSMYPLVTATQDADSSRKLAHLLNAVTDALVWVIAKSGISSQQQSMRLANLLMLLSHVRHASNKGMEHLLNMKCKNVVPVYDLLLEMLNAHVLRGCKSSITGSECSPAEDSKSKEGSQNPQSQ
# [2] = target: T2, Polyunsaturated fatty acid 5-lipoxygenase (Homo sapiens, UniProt P09917); assay: Inhibition of LOX5 in human whole blood assessed as inhibition of conversion of arachidonic acid to leukotriene; assay type: tissue-based
# T2 sequence (P09917 whole entry): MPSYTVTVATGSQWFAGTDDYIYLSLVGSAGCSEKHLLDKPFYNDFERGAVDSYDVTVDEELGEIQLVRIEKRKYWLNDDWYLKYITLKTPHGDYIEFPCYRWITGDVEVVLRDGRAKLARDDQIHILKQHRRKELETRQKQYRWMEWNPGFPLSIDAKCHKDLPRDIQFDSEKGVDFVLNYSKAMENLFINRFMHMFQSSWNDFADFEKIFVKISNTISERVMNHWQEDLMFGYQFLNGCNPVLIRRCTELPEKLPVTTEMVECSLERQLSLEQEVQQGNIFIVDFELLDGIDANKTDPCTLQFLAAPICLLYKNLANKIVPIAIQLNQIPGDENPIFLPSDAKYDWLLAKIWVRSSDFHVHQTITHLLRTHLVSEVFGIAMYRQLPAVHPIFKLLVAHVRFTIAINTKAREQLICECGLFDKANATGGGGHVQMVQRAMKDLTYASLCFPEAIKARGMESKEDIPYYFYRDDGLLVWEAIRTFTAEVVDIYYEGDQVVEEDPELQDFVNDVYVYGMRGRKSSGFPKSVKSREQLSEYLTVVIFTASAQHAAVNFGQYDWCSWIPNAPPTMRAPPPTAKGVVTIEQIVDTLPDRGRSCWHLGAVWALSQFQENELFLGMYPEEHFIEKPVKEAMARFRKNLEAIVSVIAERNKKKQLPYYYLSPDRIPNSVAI
# [3] = target: T3, Estrogen receptor (Homo sapiens, UniProt P03372)
# T3 sequence (P03372 whole entry): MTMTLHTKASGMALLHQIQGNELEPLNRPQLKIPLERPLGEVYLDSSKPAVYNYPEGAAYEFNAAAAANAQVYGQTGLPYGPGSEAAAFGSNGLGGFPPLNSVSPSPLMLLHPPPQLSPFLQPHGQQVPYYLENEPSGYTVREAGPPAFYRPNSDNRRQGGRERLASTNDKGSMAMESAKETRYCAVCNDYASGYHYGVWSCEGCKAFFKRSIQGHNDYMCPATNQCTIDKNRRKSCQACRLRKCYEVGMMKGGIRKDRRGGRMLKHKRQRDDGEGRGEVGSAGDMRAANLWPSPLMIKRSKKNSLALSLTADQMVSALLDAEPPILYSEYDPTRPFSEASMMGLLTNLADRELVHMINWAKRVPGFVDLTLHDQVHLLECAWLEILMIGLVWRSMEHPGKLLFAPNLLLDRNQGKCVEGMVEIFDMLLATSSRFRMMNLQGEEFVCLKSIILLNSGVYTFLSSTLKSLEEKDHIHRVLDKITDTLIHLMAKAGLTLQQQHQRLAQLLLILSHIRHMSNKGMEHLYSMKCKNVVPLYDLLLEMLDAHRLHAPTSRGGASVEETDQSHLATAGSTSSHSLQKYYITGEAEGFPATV
# [4] = target: T1, Estrogen receptor beta; assay: Binding affinity to human ERbeta ligand binding domain expressed in Escherichia coli BL21(DE3) cells assessed as recruitment of fluorescently labeled nuclear coactivator Scr1 after 1 hr by fluorescence polarization assay
# [5] = target: T3, Estrogen receptor; assay: biochemical
# Description: Binding affinity to human ERalpha ligand binding domain expressed in Escherichia coli BL21(DE3) cells assessed as recruitment of fluorescently labeled nuclear coactivator Scr1 after 1 hr by fluorescence polarization assay
# [6] = target: T1, Estrogen receptor beta; assay: Agonist activity at human ERbeta ligand binding domain expressed in Escherichia coli BL21(DE3) cells assessed as induction of coactivator 53-protein binding by fluorescence assay
Compound,inhibition [1],pIC50 [2],further results
O=C(N1CCc2cc(O)ccc2[C@H]1c1ccc(OCCN2CCCC2)cc1)C(F)(F)F,Active,–,–
O=S(=O)(c1ccc2ccccc2c1)N1CCc2cc(O)ccc2[C@H]1c1ccc(OCCN2CCCC2)cc1,Active,–,–
O=C(N1CCc2cc(O)ccc2C1)C(F)(F)F,–,–,pKi [3]: 8.70; pEC50 [4]: 5.34; pEC50 [5]: 6.56; Activity [6]: Active

# Further lines, with some results ahead:
inhibition [1],pIC50 [2],Compound,further results
–,5.02,c1ccc(COc2ccc3ccccc3c2)cc1,–
–,5.52,CN(C)CCNC(=O)c1ccc(COc2ccc3ccccc3c2)cc1,–
Active,–,O=S(=O)(c1ccccc1)N1CCc2cc(O)ccc2[C@H]1c1ccc(OCCN2CCCC2)cc1,–
